Key:
conscious rats [1] = assay: Blood hormone levels after central administration of NUNP and NSNP; assay type: in vivo, rat; conditions: 20 minutes after central administration of 1 nmol
conscious rats [2] = assay: Prolactin release suppressing activity by central administration of NMS; assay type: in vivo, rat; conditions: 20 minutes after central administration of 1 nmol
Method: (§1) A catheter was placed in the lateral ventricle of Wistar rats (male, 8 weeks old) and housed under controlled conditions with free access to their diet, while they were accustomed to experimental procedures (22°, light-on from 7:00 to 19:00). […] (1) For feed intake during the dark phase, NMS was administered at 18:00 and their feed intake was measured during 19:00 to 7:00. In addition, (2) NMS was administered to 14 hour-fasted rats at 9:00 and immediately thereafter the feed intake was measured for 2 hours.
Changes in prolactin blood level by central administration of NMS were monitored. Central administration to conscious rats was performed as in EXAMPLE 9. Blood was collected by decapitation 20 minutes after peptide administration. Prolactin was assayed using RIA kit (Amersham).

chick rectum = assay: Contractile activity on the chick rectum; conditions: dose of 10 pmol, 37° C., Krebs-Henseleit solution
Method: Contraction of the rectum was then measured.

c-Fos protein = assay: Immunostaining for c-Fos protein in the suprachiasmatic nucleus after intracerebroventricular administration; assay type: in vivo, rat; conditions: intracerebroventricular 1 nmol at CT6, 90 minutes after administration, compared to physiological saline
Method: Male Wistar rats (300-350 g) were used for the experiment of circadian rhythm phase shift. Intracerebroventricular administration was performed in accordance with the method of Ida et al. (Ida, T., et al., (1999) Brain Res., 821, 526, 1999). The spontaneous locomotor activity was measured by the method of Nakahara et al. (Nakahara, K., et al., Biochem. Biophys. Res. Commun., 318, 156, 2004). The phase shift of spontaneous locomotor activity rhythm was calculated based on the distance between the lines drawn by plotting a delay in time of daily onset of spontaneous locomotor activity for at least 10 days before and after the intracerebroventricular administration of NMS or physiological saline. […] Phase-response data were evaluated using one-way ANOVA followed by Scheffe's multiple comparisons test. […] The spontaneous locomotor activity was recorded for 2 weeks before and after the administration, respectively, according to the method of Nakahara et al. (Nakahara, K., et al., Biochem. Biophys. Res. Commun., 318, 156, 2004). At the conclusion of the experiment, the exact location of the cannula was determined histologically as follows. […] The sections were analyzed by comparing to the corresponding rat brain atlas of Paxinos and Watson (Paxinos, G. and Watson, C., The rat brain in stereotaxic coordinates, Academic Press, New York, USA, 1998). […]

Wistar rats [3] = assay: Effect on feed intake by central administration; assay type: in vivo, rat
Method: as §1

Wistar rats [4] = assay: Phase shift of circadian rhythms in spontaneous locomotor activity; assay type: in vivo, rat
Method: Male Wistar rats (300-350 g) were used for the experiment of circadian rhythm phase shift. Intracerebroventricular administration was performed in accordance with the method of Ida et al. (Ida, T., et al., (1999) Brain Res., 821, 526, 1999). The spontaneous locomotor activity was measured by the method of Nakahara et al. (Nakahara, K., et al., Biochem. Biophys. Res. Commun., 318, 156, 2004). The phase shift of spontaneous locomotor activity rhythm was calculated based on the distance between the lines drawn by plotting a delay in time of daily onset of spontaneous locomotor activity for at least 10 days before and after the intracerebroventricular administration of NMS or physiological saline. The onset time of spontaneous locomotor activity was designated as CT12 (circadian time 12). Phase-response data were evaluated using one-way ANOVA followed by Scheffe's multiple comparisons test. […] At 90 minutes after the administration, rats were perfused with 2% paraformaldehyde. Immunostaining for c-Fos protein was performed according to the method of Date et al. (Date, Y, et al., Proc. Natl. Acad. Sci. USA, 96, 748, 1999). The intra-suprachiasmatic nucleus perfusion was performed by an improvement of the Piggins et al. method (Piggins, H. D., et al., J. Neurosci., 15, 5612, 1995). Rats were allowed to free run under constant dark conditions for 2 weeks. Each rat was then implanted with a 26-gauge stainless steel guide cannula in the stereotaxic coordinates by Paxinos and Watson (Paxinos, G. and Watson, C., The rat brain in stereotaxic coordinates, Academic Press, New York, USA, 1998) to reach the suprachiasmatic nucleus. […] The spontaneous locomotor activity was recorded for 2 weeks before and after the administration, respectively, according to the method of Nakahara et al. (Nakahara, K., et al., Biochem. Biophys. Res. Commun., 318, 156, 2004). At the conclusion of the experiment, the exact location of the cannula was determined histologically as follows. Rats received 1 μl of India ink to mark the administered site and were then decapitated. The brain was immediately frozen and cut on a cryostat into 20 μm coronal sections, followed by staining with Crystal Violet. The sections were analyzed by comparing to the corresponding rat brain atlas of Paxinos and Watson (Paxinos, G. and Watson, C., The rat brain in stereotaxic coordinates, Academic Press, New York, USA, 1998). When data obtained for the location was more than 200 μm away from the external border of the suprachiasmatic nucleus, the data was excluded from further analysis.

Sprague-Dawley rats = assay: Hypertensive activity by transvenous administration to rat; conditions: dose of 3 nmol/kg, pentobarbital-anesthetized rats
conscious rats [5] = assay: Blood hormone levels after central administration of NUNP and NSNP; assay type: in vivo, rat; conditions: for prolactin level in blood: 20 minutes after central administration of 1 nmol
Method: as §1
(§2) Changes in prolactin blood level by central administration were monitored. Central administration to conscious rats was performed in the same way as in EXAMPLE 9. The animal received rat NUNP-36 or rat NSNP-37 prepared by the procedure of EXAMPLE 14 and dissolved in physiological saline and then decapitated, followed by blood collection in 20 minutes or blood collection via the tail vein at each time after peptide administration. Prolactin was measured using RIA kit (Amersham). A direct effect on pituitary anterior cells was also examined. The pituitary anterior cells were prepared from Wistar rats (5 week old, male), incubated in a 96-well plate for 2 days and used for the experiment. After rat NUNP-36 or rat NSNP-37 was added, the culture supernatant was recovered 30 minutes after and the prolactin level was measured.

pituitary anterior cells = assay: Prolactin release from primary culture of anterior pituitary cells; assay type: cell-based; conditions: primary culture of rat anterior pituitary cells, supernatant recovered 30 minutes after addition
Method: as §2

“rat NSNP-37: rat neuromedin S N-terminal peptide-37, SEQ ID NO: 10 (FLFHYSRAWKSTHPVNSEFAPVHPLMRLAAKLPSRRM; listed as Rattus norvegicus)” was tested, and the “follicle-stimulating hormone level in blood” value (conscious rats [1]) was 10.64 ± 0.72 ng/mL, the “other blood hormone (growth hormone, luteinizing hormone, corticosterone) levels” value (conscious rats [1]) was “any significant change was not noted” and the “thyroid-stimulating hormone level in blood” value (conscious rats [1]) was 5.37 ± 0.51 ng/mL.

In the case of “LPRLLHTDSRMATIDFPKKDPTTSLGRPFFLFRPRN [rat NMS]”, the blood prolactin level (conscious rats [2]) is reported as 3.6 ± 1.2 ng/mL, the “contraction of the chick rectum” value (chick rectum) is reported as “significant contractile activity” and the “expression of c-Fos protein in the suprachiasmatic nucleus” value (c-Fos protein) is reported as “increased”. For the same substance, the “2 hour feed intake of fasted rats” value (Wistar rats [3]; 0.5 nmol into the lateral ventricle, 14 hour-fasted rats) was “significantly suppressed the feed intake”, the “feed intake during the dark phase” value (Wistar rats [3]; administered into the lateral ventricle at 18:00, feed intake measured 19:00 to 7:00) was “significantly suppressed the feed intake dose-dependently” and the “dose at which the feed intake suppressing effect showed the maximum” value (Wistar rats [3]; dark phase feed intake, lateral ventricle administration) was 1 nmol. The “phase of spontaneous locomotor activity” value (Wistar rats [4]; intracerebroventricular 1 nmol at CT3-9, constant dark conditions) was “advances in the phase”, the “phase of spontaneous locomotor activity” value (Wistar rats [4]; intracerebroventricular 1 nmol at CT22-24, constant dark conditions) was “delays in the phase” and the “phase of spontaneous locomotor activity” value (Wistar rats [4]; intracerebroventricular 1 nmol at any other time, constant dark conditions) was “No phase shift was observed”. For the same substance, the “length of circadian rhythm” value (Wistar rats [4]; intracerebroventricular administration, any time) was “not affected”, the “phase of circadian rhythms of spontaneous locomotor activity” value (Wistar rats [4]; microinjected directly into the suprachiasmatic nucleus at CT6) was “phase advances” and the “phase of circadian rhythms of spontaneous locomotor activity” value (Wistar rats [4]; microinjected directly into the suprachiasmatic nucleus at CT23) was “delays”. For the same substance, the “blood pressure of rats” value (Sprague-Dawley rats) was “significantly increased the blood pressure”.

For “rat NUNP-36: rat neuromedin U N-terminal peptide-36, SEQ ID NO: 40 (FLFHYSKTQKLGNSNVVSSVVHPLLQLVPQLHERRM; listed as Rattus norvegicus)”, the “follicle-stimulating hormone level in blood” value (conscious rats [1]) was 12.26 ± 0.95 ng/mL, the “other blood hormone (growth hormone, luteinizing hormone, corticosterone) levels” value (conscious rats [1]) was “any significant change was not noted” and the “thyroid-stimulating hormone level in blood” value (conscious rats [1]) was 4.92 ± 0.22 ng/mL. For the same substance, the “prolactin level in blood” value (conscious rats [5]) was 68.74 ± 10.4 ng/mL, the “prolactin level in blood” value (conscious rats [5]; listed as Rat NUNP-36) was 27.34 ± 5.63 ng/mL and the “time at which the prolactin level reached the peak” value (conscious rats [5]; central administration at 1 nmol and 0.2 nmol) was 20 min. For the same substance, the “prolactin level in blood, dose and time dependency” value (conscious rats [5]; since 10 minutes after central administration at 1 nmol and 0.2 nmol) was “significant increase of prolactin level” and the “prolactin in the culture supernatant” value (pituitary anterior cells) was “no change was noted”.

Reference: patent US7943580B2, “Polypeptide and the use thereof” (National Cerebral and Cardiovascular Center, priority 2004, dated 2011)
